The results in this text go back to ChEMBL document CHEMBL5226304, “Fused-azepinones: Emerging scaffolds of medicinal importance” (Eur J Med Chem, 2021).

For assay [1], the system named is P388. The assay is described as follows: Cytotoxicity against mouse P388 cells. In kind it is functional. The conditions noted are these: read-out: ED50 (the source's name).
The subject of assay [2] is MCF7. Description: Growth inhibition of human MCF7 cells at 1 uM by MTT assay relative to control. In kind it is functional. The note with it: read-out: GI. A general note: Tetrazolium assays rely on reduction of a dye to a coloured formazan, in cell work by metabolically active cells.
Assay [3] has as its system HepG2. The assay is described as follows: Cytotoxicity against human HepG2 cells by MTT assay. Type of assay: functional, cell-based.
Assay [4] deals with MOLT-3. Description: Cytotoxicity against human MOLT-3 cells by MTT assay. Type of assay: functional, cell-based.
Assay [5] concerns the target Tubulin. The assay is described as follows: Inhibition of tubulin polymerization (unknown origin). Type of assay: protein-complex assay, Homo sapiens.
Assay [6] concerns A549. Description: Cytotoxicity against human A549 cells by MTT assay. Type of assay: functional, cell-based.
Assay [7] addresses Cyclin-dependent kinase 1/cyclin B (Homo sapiens, UniProt P06493). The assay is described as follows: Inhibition of CDK1/Cyclin B (unknown origin) in presence of gamma32P-ATP by scintillation counter analysis. In kind it is protein-complex assay.
For assay [8], the target named is Dual specificity mitogen-activated protein kinase kinase 1 (Homo sapiens, UniProt Q02750). Description: Inhibition of MEK1 (unknown origin).
For assay [9], the target named is Protein kinase C (PKC). Description: Inhibition of Protein kinase C (unknown origin). In kind it is protein assay, Homo sapiens.
Assay [10] addresses Cyclin-dependent kinase 5/CDK5 activator 1 (Homo sapiens, UniProt Q00535). The assay is described as follows: Inhibition of CDK5/p25 (unknown origin). Type of assay: protein-complex assay.
Assay [11] deals with L5178Y. The assay is described as follows: Cytotoxicity against mouse L5178Y cells by MTT assay. In kind it is functional, cell-based.
Assay [12] deals with Rattus norvegicus. The assay is described as follows: Antiarthritic activity in adjuvant-induced arthritis rat model assessed as reduction in paw swelling at 20 mg/kg, ip administered for day 6 to 10 post adjuvant measured on day 16 to 20 relative to control. In kind it is functional.
Assay [13] relates to Rattus norvegicus. The assay is described as follows: Antiarthritic activity in adjuvant-induced arthritis rat model assessed as reduction in paw swelling at 10 mg/kg, ip administered for day 6 to 10 post adjuvant measured on day 16 to 20 relative to control. Type of assay: functional.
Assay [14] is filed under the species Homo sapiens. Description: Selectivity ratio of IC50 for Chk1 (unknown origin) to IC50 for (unknown origin).
Assay [15] has as its target CDK1/Cyclin E (Homo sapiens, UniProt P06493). The assay is described as follows: Inhibition of CDK1/Cyclin E (unknown origin). Type of assay: protein-complex assay.
Assay [16] concerns the target CDK3/Cyclin E (Homo sapiens, UniProt Q00526). The assay is described as follows: Inhibition of CDK3/Cyclin E (unknown origin). In kind it is protein-complex assay.
In assay [17] the target is Mitogen-activated protein kinase 3 (Homo sapiens, UniProt P27361). Description: Inhibition of Erk1 (unknown origin).
Assay [18] is described as follows: Inhibition of MAPKK (unknown origin). Also on record: species or system Homo sapiens.
Assay [19] concerns the target Casein kinase I. Description: Inhibition of CK1 (unknown origin). Type of assay: protein assay, Homo sapiens.
The target of assay [20] is Casein kinase 2 (Homo sapiens, UniProt P67870+P68400+P19784+Q8NEV1). Description: Inhibition of CK2 (unknown origin). In kind it is protein assay.
The target in assay [21] is Cyclin-dependent kinase 4/cyclin D1 (Homo sapiens, UniProt P11802). Description: Inhibition of CDK4/Cyclin D1 (unknown origin). In kind it is protein-complex assay.
In assay [22] the target is CDK6/cyclin D2 (Homo sapiens, UniProt P30279+Q00534). The assay is described as follows: Inhibition of CDK6/Cyclin D2 (unknown origin). In kind it is protein-complex assay.
Assay [23] in a line: Inhibition of cAMP-dependent protein kinase (unknown origin). Further details: species or system Homo sapiens.
Assay [24] can be described thus: Inhibition of cGMP-dependent protein kinase (unknown origin). Further details: species or system Homo sapiens.
The target in assay [25] is Proto-oncogene tyrosine-protein kinase Src (Homo sapiens, UniProt P12931). The assay is described as follows: Inhibition of c-Src (unknown origin).
Assay [26] has as its target Tyrosine-protein kinase ABL1 (Homo sapiens, UniProt P00519). Description: Inhibition of c-abl (unknown origin).
The target of assay [27] is DNA topoisomerase 1 (Homo sapiens, UniProt P11387). The assay is described as follows: Inhibition of topoisomerase 1 (unknown origin).
In assay [28] the target is DNA topoisomerase 2-alpha (Homo sapiens, UniProt P11388). Description: Inhibition of topoisomerase 2 alpha (unknown origin).
The test system of assay [29] is KB 3-1. The assay is described as follows: Cytotoxicity against human KB-3-1 cells by MTT assay. In kind it is functional, cell-based.
A short description of assay [30]: Inhibition of IL-1 stimulated PGE2 production in human rheumatoid synovial fibroblasts. In kind it is functional, cell-based. The note with it: Fibroblast.
The species named for assay [31] is Bos taurus. Description: Inhibition of Interleukin-1- stimulated proteoglycan degradation in bovine articular cartilage. Type of assay: functional. The note with it: Cartilage tissue.
Assay [32] is filed under the species Bos taurus. Description: Inhibition of Interleukin-1- stimulated iNOS gene expression in bovine articular cartilage. Type of assay: functional. The note with it: Cartilage tissue.
The subject of assay [33] is THP-1. The assay is described as follows: Antiinflammatory activity in human THP-1 cells assessed as inhibition of LPS-stimulated IL2 production. In kind it is functional, cell-based.
Assay [34] relates to THP-1. The assay is described as follows: Antiinflammatory activity in human THP-1 cells assessed as inhibition of LPS-stimulated TNFalpha production. In kind it is functional, cell-based.
For assay [35], the system named is Human immunodeficiency virus 1. Description: Antiviral activity against HIV1 assessed as inhibition of LC5-RIC cells infection at 3.1 uM relative to control. Type of assay: functional.
In assay [36] the target is Human immunodeficiency virus type 1 reverse transcriptase (Human immunodeficiency virus 1) (UniProt Q72547). The assay is described as follows: Inhibition of HIV1 Reverse transcriptase at 25 uM relative to control.
For assay [37], the species on record is Mus musculus. The assay is described as follows: Neuroprotective activity in Swiss mouse cortical neurons assessed as increase in cell viability in presence of H2O2 at 10 nM relative to control. In kind it is functional.
Assay [38] is filed under the species Mus musculus. The assay is described as follows: Neuroprotective activity in Swiss mouse cortical neurons assessed as increase in cell viability in presence of H2O2 at 1 nM relative to control. Type of assay: functional.
Assay [39] concerns Rattus norvegicus. The assay is described as follows: Hypotensive effect in rat vascular smooth muscles assessed as reduction in arterial blood pressure at 5 mg/kg measured after 15 mins. In kind it is functional. The conditions noted are these: Smooth muscle tissue, 0.25 h.

By IC50 is commonly meant the point on the concentration scale where inhibition reaches its midpoint. One may read the inhibition in vivo as the percentage by which the read-out fell short of the control. In general, inhibition refers to the relative decrease from the control value, in per cent.

Values after ≈ are worked out from the molar mass of the structure shown. Some results are limits rather than exact numbers.

Cyclin-dependent kinase 5/CDK5 activator 1, sequence (Q00535 whole entry): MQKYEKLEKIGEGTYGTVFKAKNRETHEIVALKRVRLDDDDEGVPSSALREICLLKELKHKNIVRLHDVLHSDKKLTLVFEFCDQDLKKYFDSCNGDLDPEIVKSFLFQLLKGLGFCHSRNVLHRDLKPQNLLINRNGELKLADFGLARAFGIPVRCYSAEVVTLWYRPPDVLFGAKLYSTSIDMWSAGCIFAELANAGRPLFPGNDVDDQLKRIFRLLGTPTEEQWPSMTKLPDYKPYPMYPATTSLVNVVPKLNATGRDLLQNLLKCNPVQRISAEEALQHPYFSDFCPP
Cyclin-dependent kinase 5/CDK5 activator 1, sequence (Q15078 whole entry, further chain): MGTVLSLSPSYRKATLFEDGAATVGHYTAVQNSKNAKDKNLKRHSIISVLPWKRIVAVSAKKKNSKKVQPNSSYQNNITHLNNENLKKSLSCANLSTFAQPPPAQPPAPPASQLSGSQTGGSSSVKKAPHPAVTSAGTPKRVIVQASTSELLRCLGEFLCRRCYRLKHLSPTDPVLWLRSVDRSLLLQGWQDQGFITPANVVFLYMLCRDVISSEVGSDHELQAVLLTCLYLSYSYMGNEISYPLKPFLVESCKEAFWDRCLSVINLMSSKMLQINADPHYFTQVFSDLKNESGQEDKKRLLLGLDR
DNA topoisomerase 1, sequence (P11387 whole entry): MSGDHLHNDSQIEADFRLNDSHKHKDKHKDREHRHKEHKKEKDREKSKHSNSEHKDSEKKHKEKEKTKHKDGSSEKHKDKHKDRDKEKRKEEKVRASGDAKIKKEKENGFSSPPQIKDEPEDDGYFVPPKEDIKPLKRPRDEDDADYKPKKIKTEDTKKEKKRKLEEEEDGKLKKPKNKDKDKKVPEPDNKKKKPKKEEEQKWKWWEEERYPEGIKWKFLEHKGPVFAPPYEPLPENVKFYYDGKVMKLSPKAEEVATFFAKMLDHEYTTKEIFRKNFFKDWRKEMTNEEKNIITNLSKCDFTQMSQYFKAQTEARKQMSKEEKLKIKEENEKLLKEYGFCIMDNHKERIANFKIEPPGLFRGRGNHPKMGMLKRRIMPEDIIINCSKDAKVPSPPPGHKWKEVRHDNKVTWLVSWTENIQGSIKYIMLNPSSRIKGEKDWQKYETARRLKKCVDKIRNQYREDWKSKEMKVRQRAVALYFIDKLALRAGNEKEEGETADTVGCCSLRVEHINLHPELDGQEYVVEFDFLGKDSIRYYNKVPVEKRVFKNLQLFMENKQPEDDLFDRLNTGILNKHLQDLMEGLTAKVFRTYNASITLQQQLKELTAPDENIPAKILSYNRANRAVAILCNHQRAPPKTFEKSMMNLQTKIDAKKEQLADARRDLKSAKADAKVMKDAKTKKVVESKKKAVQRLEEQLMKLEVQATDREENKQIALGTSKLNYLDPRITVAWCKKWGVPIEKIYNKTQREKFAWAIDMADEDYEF
CDK3/Cyclin E, sequence (P24864 whole entry): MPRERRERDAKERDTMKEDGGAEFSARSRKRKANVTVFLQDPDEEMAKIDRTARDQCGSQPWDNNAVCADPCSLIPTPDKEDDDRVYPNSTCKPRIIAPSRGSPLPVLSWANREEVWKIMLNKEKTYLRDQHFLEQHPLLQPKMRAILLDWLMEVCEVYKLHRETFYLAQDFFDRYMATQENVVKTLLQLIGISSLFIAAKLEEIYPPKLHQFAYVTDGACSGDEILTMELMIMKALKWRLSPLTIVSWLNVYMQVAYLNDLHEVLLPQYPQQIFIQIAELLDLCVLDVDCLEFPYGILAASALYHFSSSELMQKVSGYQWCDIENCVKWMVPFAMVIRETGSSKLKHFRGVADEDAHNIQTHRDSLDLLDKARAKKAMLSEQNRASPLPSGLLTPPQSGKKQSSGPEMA
CDK3/Cyclin E, sequence (Q00526 whole entry): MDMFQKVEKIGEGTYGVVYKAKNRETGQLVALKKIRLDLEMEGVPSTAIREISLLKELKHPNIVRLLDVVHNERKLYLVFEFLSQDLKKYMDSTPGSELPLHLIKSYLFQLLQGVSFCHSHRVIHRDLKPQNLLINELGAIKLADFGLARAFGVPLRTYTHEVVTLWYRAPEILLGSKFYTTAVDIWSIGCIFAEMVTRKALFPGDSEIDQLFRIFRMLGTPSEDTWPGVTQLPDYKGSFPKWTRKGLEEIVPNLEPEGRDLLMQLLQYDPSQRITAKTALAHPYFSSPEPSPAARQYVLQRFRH
Dual specificity mitogen-activated protein kinase kinase 1, sequence (Q02750 whole entry): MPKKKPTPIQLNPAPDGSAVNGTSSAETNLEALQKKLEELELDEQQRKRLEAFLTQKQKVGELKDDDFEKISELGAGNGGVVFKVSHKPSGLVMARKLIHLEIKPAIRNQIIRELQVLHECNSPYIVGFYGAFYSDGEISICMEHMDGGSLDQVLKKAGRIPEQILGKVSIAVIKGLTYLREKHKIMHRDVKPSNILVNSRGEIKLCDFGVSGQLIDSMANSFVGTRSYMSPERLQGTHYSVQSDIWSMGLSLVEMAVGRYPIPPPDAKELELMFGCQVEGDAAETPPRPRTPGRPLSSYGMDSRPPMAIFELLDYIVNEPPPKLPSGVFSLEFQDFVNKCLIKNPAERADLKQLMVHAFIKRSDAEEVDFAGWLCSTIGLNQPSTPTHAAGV
Mitogen-activated protein kinase 3, sequence (P27361 whole entry): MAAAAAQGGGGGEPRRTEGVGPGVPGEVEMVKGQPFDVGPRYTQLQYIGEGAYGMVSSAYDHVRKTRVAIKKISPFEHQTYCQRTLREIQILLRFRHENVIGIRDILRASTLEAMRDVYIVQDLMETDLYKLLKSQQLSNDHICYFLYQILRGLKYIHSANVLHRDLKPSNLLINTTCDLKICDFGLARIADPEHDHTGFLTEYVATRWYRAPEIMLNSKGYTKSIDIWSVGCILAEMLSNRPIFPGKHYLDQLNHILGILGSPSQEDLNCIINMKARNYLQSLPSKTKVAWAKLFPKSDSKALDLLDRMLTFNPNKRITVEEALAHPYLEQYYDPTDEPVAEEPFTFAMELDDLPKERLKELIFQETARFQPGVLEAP
CDK6/cyclin D2, sequence (Q00534 whole entry): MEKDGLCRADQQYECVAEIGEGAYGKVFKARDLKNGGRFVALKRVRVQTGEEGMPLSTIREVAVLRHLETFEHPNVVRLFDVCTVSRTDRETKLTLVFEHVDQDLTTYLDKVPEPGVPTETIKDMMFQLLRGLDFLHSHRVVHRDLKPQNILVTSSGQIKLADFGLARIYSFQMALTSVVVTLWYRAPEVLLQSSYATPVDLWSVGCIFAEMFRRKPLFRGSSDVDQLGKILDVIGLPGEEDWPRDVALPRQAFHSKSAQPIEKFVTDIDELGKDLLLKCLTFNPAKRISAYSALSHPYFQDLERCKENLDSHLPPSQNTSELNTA
CDK6/cyclin D2, sequence (P30279 whole entry): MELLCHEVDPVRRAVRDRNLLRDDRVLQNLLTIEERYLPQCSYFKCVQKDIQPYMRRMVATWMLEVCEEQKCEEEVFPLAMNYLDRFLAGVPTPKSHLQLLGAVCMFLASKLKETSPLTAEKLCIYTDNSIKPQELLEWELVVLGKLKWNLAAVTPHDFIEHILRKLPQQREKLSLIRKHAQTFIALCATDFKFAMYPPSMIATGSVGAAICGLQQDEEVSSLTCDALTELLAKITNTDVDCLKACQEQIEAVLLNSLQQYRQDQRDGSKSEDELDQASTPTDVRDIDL
Proto-oncogene tyrosine-protein kinase Src, sequence (P12931 2-536 limits assumed): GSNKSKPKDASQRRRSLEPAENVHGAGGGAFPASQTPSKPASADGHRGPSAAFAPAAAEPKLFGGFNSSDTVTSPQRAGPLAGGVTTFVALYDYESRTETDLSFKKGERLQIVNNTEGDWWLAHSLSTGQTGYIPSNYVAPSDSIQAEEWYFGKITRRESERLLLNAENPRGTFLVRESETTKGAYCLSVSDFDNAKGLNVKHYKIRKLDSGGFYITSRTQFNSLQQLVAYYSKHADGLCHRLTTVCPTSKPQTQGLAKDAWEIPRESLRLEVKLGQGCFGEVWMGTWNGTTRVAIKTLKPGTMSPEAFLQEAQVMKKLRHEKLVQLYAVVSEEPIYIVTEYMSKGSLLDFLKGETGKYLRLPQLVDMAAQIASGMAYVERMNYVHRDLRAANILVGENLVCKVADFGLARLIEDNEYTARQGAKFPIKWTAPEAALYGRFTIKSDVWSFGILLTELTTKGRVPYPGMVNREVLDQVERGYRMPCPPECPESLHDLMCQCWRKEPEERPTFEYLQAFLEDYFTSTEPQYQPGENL
Cyclin-dependent kinase 4/cyclin D1, sequence (P11802 whole entry): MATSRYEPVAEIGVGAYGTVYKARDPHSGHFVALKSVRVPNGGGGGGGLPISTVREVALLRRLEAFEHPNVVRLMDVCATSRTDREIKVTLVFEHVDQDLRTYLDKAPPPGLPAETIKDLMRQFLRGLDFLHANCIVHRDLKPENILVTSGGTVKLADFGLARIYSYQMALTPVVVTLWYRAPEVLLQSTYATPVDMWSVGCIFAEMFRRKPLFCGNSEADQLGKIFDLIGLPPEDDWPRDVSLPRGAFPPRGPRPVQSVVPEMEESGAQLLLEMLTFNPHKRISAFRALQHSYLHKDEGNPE
Cyclin-dependent kinase 4/cyclin D1, sequence (P24385 whole entry, further chain): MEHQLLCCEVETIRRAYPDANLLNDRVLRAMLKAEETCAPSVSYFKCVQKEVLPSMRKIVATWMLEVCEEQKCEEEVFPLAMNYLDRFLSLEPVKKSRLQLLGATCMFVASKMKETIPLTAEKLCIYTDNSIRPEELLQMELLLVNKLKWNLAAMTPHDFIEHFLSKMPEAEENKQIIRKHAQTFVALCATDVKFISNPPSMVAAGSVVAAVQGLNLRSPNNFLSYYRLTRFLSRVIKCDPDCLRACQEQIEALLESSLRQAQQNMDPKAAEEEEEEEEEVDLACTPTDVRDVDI

Turning to `O=C1NC(=O)/C(=C2/CCNC(=O)c3[nH]c(Br)cc32)N1`, in assay [1], the EC50 was 18 µg/mL (≈ 55.4 µM).

With `O=C1NCc2ccccc2-c2c1sc1ccccc21`, in [2], the inhibition of growth at 1 µM worked out at 17%.

Turning to `O=C1NCCc2ccccc2-c2c1[nH]c1ccccc21`, the results for the IC50 in assay [3], in [4] and in assay [5] were 460 nM, 9 nM and 7.7 µM, respectively.

In assay [6], `Cc1ccc2[nH]c3c(c2c1)CNC(=O)c1[nH]c2ccccc2c1-3` displayed an IC50 of 4.2 µM.

In the case of `NC1=N/C(=C2/CCNC(=O)c3[nH]ccc32)C(=O)N1` [DEBROMOHYMENIALDISINE], the IC50 in assay [7] is 250 nM; in assay [8], 820 nM; in [9], less than 10 µM; in assay [10], 112 nM. Moreover, in [11], the EC50 came to 1.8 µg/mL (≈ 7.34 µM). Further, the inhibition in vivo at 20 mg/kg in assay [12] was more than 60%. Further, the inhibition in vivo at 10 mg/kg in assay [13] came out at 63%. In assay [14], the Ratio IC50 is 4.

Regarding `NC1=NC(=O)/C(=C2\CCNC(=O)c3[nH]c(Br)cc32)N1` [HYMENIALDISINE], the IC50 came out at 40 nM in assay [15]; 100 nM in [16]; 470 nM in assay [17]; 1200 nM in assay [18]; 35 nM in assay [19]; 7 µM in [20]. Further, the IC50 was determined as 600 nM in [21]; 25 nM in assay [10]; 700 nM in [22]; 8 µM in assay [23]; 1700 nM in assay [24]; 7 µM in assay [25]. Moreover, the IC50 in [26] is 4 µM; in [27], 10 µM; in assay [28] it was 10 µM; in assay [29], 3.1 µM; in assay [30] it was 600 nM; in assay [31], 600 nM. Moreover, the IC50 came to 800 nM in [32], 2400 nM in [33] and 1400 nM in assay [34]. Besides, the EC50 in assay [11] is 3.5 µg/mL (≈ 10.8 µM). The inhibition at 3.1 µM in assay [35] is 30%. In assay [36], this compound gave an inhibition of 90%. In [37], the Activity was found to be 120%.

As to `Nc1nc(C2CCNC(=O)c3[nH]c(Br)c(Br)c32)c[nH]1` (stereo unspecified), the Activity in assay [38] was determined as 120%. In assay [39], the inhibition in vivo at 5 mg/kg came to 90%.
